Experimental data: the RepoRT retention time repository (doi:10.1016/j.chroma.2022.462867)

Experiment: RP, Phenomenex Kinetex PS C18, 150 × 3 mm, 2.6 µm, 40 °C, 0.35 mL/min, estimated dead time 1.9 min; A: water + 5 mM ammonium acetate, pH 5; B: methanol; gradient (min/%B) 0/5 20/100 25/100 30/5
Conditions: stereoisomer not certain

Row | SMILES | LC retention time [min]
1 | CCOP(=O)(OCC)OCC [Triethyl phosphate] | 11.2
2 | CC12CCC3c4ccc(O)cc4CCC3C1CCC2O (stereo not drawn) [17beta estradiol] | 15.8
3 | Nc1nc(N)nc(N)n1 [Melamine] | 2.33
4 | CCc1cccc(C)c1N(C(=O)CCl)C(C)COC (stereo not drawn) [Metolachlor] | 16.6
5 | C#CC1(O)CCC2C3CCC4=CC(=O)CCC4C3CCC21C (stereo not drawn) [Norethindrone] | 15.9
6 | Oc1ccc2ccc3cccc4ccc1c2c34 [1-hydroxypyrene] | 16.7
7 | CCN=C1NC(=NCC)NC(Cl)N1 (stereo not drawn) [Simazine] | 12.4
8 | CNC(=O)C=C(C)OP(=O)(OC)OC [Monocrotophos] | 7.86
9 | CCCc1cc(=O)[nH]c(=S)[nH]1 [Propylthiouracil] | 7.7
10 | CN(C)C(=O)Nc1ccc(Cl)c(Cl)c1 [Diuron] | 14.1
11 | CC(C)COP(=O)(OCC(C)C)OCC(C)C [Tri-isobutyl phosphate] | 18
12 | CSC1N=C(NC2CC2)NC(NC(C)(C)C)N1 (stereo not drawn) [Irgarol] | 16.6
13 | CCOP(=S)(OCC)Oc1nc(Cl)c(Cl)cc1Cl [Chlorpyrifos] | 18.8
14 | c1ccc2nccnc2c1 [Quinoxaline] | 9.84
15 | Cn1c(=O)c2c(ncn2C)n(C)c1=O [Caffeine] | 7.93
16 | O=C1Nc2ccc(Cl)cc2C(C#CC2CC2)(C(F)(F)F)O1 (stereo not drawn) [Efavirenz] | 16.7
17 | COc1ccc(Cl)cc1C(=O)NCCc1ccc(S(=O)(=O)NC(=O)NC2CCCCC2)cc1 [Glibenclamide] | 16
18 | Cc1cc(C)nc(NS(=O)(=O)c2ccc(N)cc2)n1 [Sulfamethazine] | 7.93
19 | CCOP(=S)(OCC)Oc1ccc([N+](=O)[O-])cc1 [Parathion] | 16.7
20 | C1=Cc2ccccc2Nc2ccccc21 [Iminostilbene] | 15.5
21 | c1ccc2n[nH]nc2c1 [1H-Benzotriazole] | 8.12
22 | c1ccc2scnc2c1 [Benzothiazole] | 11.5
23 | NC(=O)c1cccnc1 [Nicotinamide] | 3.85
24 | CSc1nc2ccccc2s1 [2-(Methylthio)benzothiazole] | 15

Row | SMILES | LC retention time [min]
25 | CCC1=C(C)CN(C(=O)NCCc2ccc(S(=O)(=O)NC(=O)NC3CCC(C)CC3)cc2)C1=O (stereo not drawn) [Glimepiride] | 16.5
26 | CC(O)(CS(=O)(=O)c1ccc(F)cc1)C(=O)Nc1ccc(C#N)c(C(F)(F)F)c1 (stereo not drawn) [Bicalutamide] | 14.6
27 | CCN=C1NC(NC(C)C)=NC(Cl)N1 (stereo not drawn) [Atrazine] | 13.9
28 | Nc1cnn(-c2ccccc2)c(=O)c1Cl [Chloridazon] | 9.65
29 | CSC1N=C(NC(C)C)NC(NC(C)C)=N1 [Prometryn] | 16.2
30 | NS(=O)(=O)c1cc2c(cc1Cl)NCNS2(=O)=O [Hydrochlorothiazide] | 13.8
31 | OC(Cn1cncn1)(Cn1cncn1)c1ccc(F)cc1F [fluconazole] | 9.64
32 | O=C(O)c1ccc2ccccc2c1 [2-naphthoic acid] | 13
33 | CCC(=O)Nc1ccc(Cl)c(Cl)c1 [Propanil] | 15
34 | CCc1cccc(CC)c1N(COC)C(=O)CCl [Alachlor] | 16.4
35 | CC(=O)OCC(=O)C1(O)CCC2C3CCC4=CC(=O)CCC4(C)C3C(O)CC21C (stereo not drawn) [Hydrocortisonacetate] | 15
36 | CCCN(CCC)c1c([N+](=O)[O-])cc(C(F)(F)F)cc1[N+](=O)[O-] [Trifluralin] | 19
37 | CCN=C1NC(Cl)NC(NC(C)(C)C#N)N1 (stereo not drawn) [Cyanazine] | 12
38 | Nc1ccc(S(=O)(=O)Nc2ccccn2)cc1 [Sulfapyridine] | 6.53
39 | N#Cc1nn(-c2c(Cl)cc(C(F)(F)F)cc2Cl)c(N)c1S(=O)C(F)(F)F (stereo not drawn) [Fipronil] | 16.6
40 | Cc1ccc2n[nH]nc2c1 [5-Methyl-1H-benzotriazole] | 10.4
41 | NC(=O)N1c2ccccc2C=Cc2ccccc21 [Carbamazepine] | 13.2
42 | CC12CCC(=O)C=C1CCC1C2C(O)CC2(C)C(C(=O)CO)CCC12 (stereo not drawn) [Corticosterone] | 15
43 | CC(C)C1=CC2=CCC3C(C)(C(=O)O)CCCC3(C)C2CC1 (stereo not drawn) [Abietic acid] | 20.3
44 | CCC(C)(C)C(=O)OC1CC(C)C=C2C=CC(C)C(CCC3CC(O)CC(=O)O3)C21 (stereo not drawn) [Simvastatin] | 19.1
45 | O=[N+]([O-])c1ccc2ccc3cccc4ccc1c2c34 [1-Nitropyrene] | 18.4
46 | CCCSP(=O)(OCC)SCCC [Ethoprop] | 16.5
47 | CCCCC(=O)N(Cc1ccc(-c2ccccc2-c2nn[nH]n2)cc1)C(C(=O)O)C(C)C (stereo not drawn) [Valsartan] | 13.5
48 | Cc1cc(=O)n(-c2ccccc2)n1C [Phenazone (Antipyrine)] | 9.04

Experiment: RP, Phenomenex Kinetex EVO C18, 150 × 3 mm, 2.6 µm, 40 °C, 0.35 mL/min, estimated dead time 1.9 min; A: water + 5 mM ammonium formate, pH 5; B: acetonitrile; gradient (min/%B) 0/5 20/100 25/100 30/5
Conditions: stereoisomer not certain

Row | SMILES | LC retention time [min]
49 | CCOP(=O)(OCC)OCC [Triethyl phosphate] | 6.52
50 | CC12CCC3c4ccc(O)cc4CCC3C1CCC2O (stereo not drawn) [17beta estradiol] | 11.2
51 | CCc1cccc(C)c1N(C(=O)CCl)C(C)COC (stereo not drawn) [Metolachlor] | 12.9
52 | C#CC1(O)CCC2C3CCC4=CC(=O)CCC4C3CCC21C (stereo not drawn) [Norethindrone] | 11.2
53 | Oc1ccc2ccc3cccc4ccc1c2c34 [1-hydroxypyrene] | 13.1
54 | CCN=C1NC(=NCC)NC(Cl)N1 (stereo not drawn) [Simazine] | 8.6
55 | CNC(=O)C=C(C)OP(=O)(OC)OC [Monocrotophos] | 4.17
56 | CCCc1cc(=O)[nH]c(=S)[nH]1 [Propylthiouracil] | 4.45
57 | CN(C)C(=O)Nc1ccc(Cl)c(Cl)c1 [Diuron] | 10.6
58 | CC(C)COP(=O)(OCC(C)C)OCC(C)C [Tri-isobutyl phosphate] | 14
59 | CCOP(=S)(OCC)Oc1nc(Cl)c(Cl)cc1Cl [Chlorpyrifos] | 15.9
60 | c1ccc2nccnc2c1 [Quinoxaline] | 5.73
61 | Cn1c(=O)c2c(ncn2C)n(C)c1=O [Caffeine] | 3.88
62 | O=C1Nc2ccc(Cl)cc2C(C#CC2CC2)(C(F)(F)F)O1 (stereo not drawn) [Efavirenz] | 13.6
63 | COc1ccc(Cl)cc1C(=O)NCCc1ccc(S(=O)(=O)NC(=O)NC2CCCCC2)cc1 [Glibenclamide] | 12.5
64 | Cc1cc(C)nc(NS(=O)(=O)c2ccc(N)cc2)n1 [Sulfamethazine] | 5.18
65 | CCOP(=S)(OCC)Oc1ccc([N+](=O)[O-])cc1 [Parathion] | 14.2
66 | C1=Cc2ccccc2Nc2ccccc21 [Iminostilbene] | 13
67 | c1ccc2n[nH]nc2c1 [1H-Benzotriazole] | 5
68 | c1ccc2scnc2c1 [Benzothiazole] | 7.96

Row | SMILES | LC retention time [min]
69 | CSc1nc2ccccc2s1 [2-(Methylthio)benzothiazole] | 11.6
70 | CCC1=C(C)CN(C(=O)NCCc2ccc(S(=O)(=O)NC(=O)NC3CCC(C)CC3)cc2)C1=O (stereo not drawn) [Glimepiride] | 12.8
71 | CC(O)(CS(=O)(=O)c1ccc(F)cc1)C(=O)Nc1ccc(C#N)c(C(F)(F)F)c1 (stereo not drawn) [Bicalutamide] | 12.2
72 | Nc1cnn(-c2ccccc2)c(=O)c1Cl [Chloridazon] | 6.18
73 | CSC1N=C(NC(C)C)NC(NC(C)C)=N1 [Prometryn] | 12.5
74 | NS(=O)(=O)c1cc2c(cc1Cl)NCNS2(=O)=O [Hydrochlorothiazide] | 9.77
75 | OC(Cn1cncn1)(Cn1cncn1)c1ccc(F)cc1F [fluconazole] | 5.92
76 | CCC(=O)Nc1ccc(Cl)c(Cl)c1 [Propanil] | 11.8
77 | CCc1cccc(CC)c1N(COC)C(=O)CCl [Alachlor] | 13
78 | CC(=O)OCC(=O)C1(O)CCC2C3CCC4=CC(=O)CCC4(C)C3C(O)CC21C (stereo not drawn) [Hydrocortisonacetate] | 10.6
79 | CCCN(CCC)c1c([N+](=O)[O-])cc(C(F)(F)F)cc1[N+](=O)[O-] [Trifluralin] | 16.5
80 | CCN=C1NC(Cl)NC(NC(C)(C)C#N)N1 (stereo not drawn) [Cyanazine] | 8.86
81 | Nc1ccc(S(=O)(=O)Nc2ccccn2)cc1 [Sulfapyridine] | 4.4
82 | Cc1ccc2n[nH]nc2c1 [5-Methyl-1H-benzotriazole] | 6.42
83 | CC12CCC(=O)C=C1CCC1C2C(O)CC2(C)C(C(=O)CO)CCC12 (stereo not drawn) [Corticosterone] | 9.72
84 | CC(C)C1=CC2=CCC3C(C)(C(=O)O)CCCC3(C)C2CC1 (stereo not drawn) [Abietic acid] | 16.9
85 | CCC(C)(C)C(=O)OC1CC(C)C=C2C=CC(C)C(CCC3CC(O)CC(=O)O3)C21 (stereo not drawn) [Simvastatin] | 14.9
86 | O=[N+]([O-])c1ccc2ccc3cccc4ccc1c2c34 [1-Nitropyrene] | 14.8
87 | CCCCC(=O)N(Cc1ccc(-c2ccccc2-c2nn[nH]n2)cc1)C(C(=O)O)C(C)C (stereo not drawn) [Valsartan] | 8.73

Experiment: RP, Phenomenex Kinetex EVO C18, 150 × 3 mm, 2.6 µm, 40 °C, 0.35 mL/min, estimated dead time 1.9 min; A: water + 0.1% formic acid, pH 3; B: methanol; gradient (min/%B) 0/5 20/100 25/100 30/5
Conditions: stereoisomer not certain

Row | SMILES | LC retention time [min]
88 | CCOP(=O)(OCC)OCC [Triethyl phosphate] | 10.5
89 | CC12CCC3c4ccc(O)cc4CCC3C1CCC2O (stereo not drawn) [17beta estradiol] | 15.2
90 | CCc1cccc(C)c1N(C(=O)CCl)C(C)COC (stereo not drawn) [Metolachlor] | 16.3
91 | C#CC1(O)CCC2C3CCC4=CC(=O)CCC4C3CCC21C (stereo not drawn) [Norethindrone] | 14.9
92 | CCN=C1NC(=NCC)NC(Cl)N1 (stereo not drawn) [Simazine] | 11.9
93 | CNC(=O)C=C(C)OP(=O)(OC)OC [Monocrotophos] | 6.95
94 | CCCc1cc(=O)[nH]c(=S)[nH]1 [Propylthiouracil] | 6.85
95 | CN(C)C(=O)Nc1ccc(Cl)c(Cl)c1 [Diuron] | 13.9
96 | CC(C)COP(=O)(OCC(C)C)OCC(C)C [Tri-isobutyl phosphate] | 17.8
97 | c1ccc2nccnc2c1 [Quinoxaline] | 8.84
98 | Cn1c(=O)c2c(ncn2C)n(C)c1=O [Caffeine] | 6.69
99 | O=C1Nc2ccc(Cl)cc2C(C#CC2CC2)(C(F)(F)F)O1 (stereo not drawn) [Efavirenz] | 16.8
100 | COc1ccc(Cl)cc1C(=O)NCCc1ccc(S(=O)(=O)NC(=O)NC2CCCCC2)cc1 [Glibenclamide] | 16.2
101 | Cc1cc(C)nc(NS(=O)(=O)c2ccc(N)cc2)n1 [Sulfamethazine] | 6.77
102 | CCOP(=S)(OCC)Oc1ccc([N+](=O)[O-])cc1 [Parathion] | 16.8
103 | C1=Cc2ccccc2Nc2ccccc21 [Iminostilbene] | 15.7
104 | c1ccc2n[nH]nc2c1 [1H-Benzotriazole] | 7.35
105 | c1ccc2scnc2c1 [Benzothiazole] | 11.2

Row | SMILES | LC retention time [min]
106 | CSc1nc2ccccc2s1 [2-(Methylthio)benzothiazole] | 15.2
107 | CC(O)(CS(=O)(=O)c1ccc(F)cc1)C(=O)Nc1ccc(C#N)c(C(F)(F)F)c1 (stereo not drawn) [Bicalutamide] | 14.4
108 | CCN=C1NC(NC(C)C)=NC(Cl)N1 (stereo not drawn) [Atrazine] | 13.6
109 | Nc1cnn(-c2ccccc2)c(=O)c1Cl [Chloridazon] | 8.88
110 | NS(=O)(=O)c1cc2c(cc1Cl)NCNS2(=O)=O [Hydrochlorothiazide] | 4.62
111 | OC(Cn1cncn1)(Cn1cncn1)c1ccc(F)cc1F [fluconazole] | 8.85
112 | O=C(O)c1ccc2ccccc2c1 [2-naphthoic acid] | 14.1
113 | CCC(=O)Nc1ccc(Cl)c(Cl)c1 [Propanil] | 14.9
114 | CCc1cccc(CC)c1N(COC)C(=O)CCl [Alachlor] | 16.2
115 | CC(=O)OCC(=O)C1(O)CCC2C3CCC4=CC(=O)CCC4(C)C3C(O)CC21C (stereo not drawn) [Hydrocortisonacetate] | 14.3
116 | CCCN(CCC)c1c([N+](=O)[O-])cc(C(F)(F)F)cc1[N+](=O)[O-] [Trifluralin] | 16.9
117 | CCN=C1NC(Cl)NC(NC(C)(C)C#N)N1 (stereo not drawn) [Cyanazine] | 11.4
118 | Nc1ccc(S(=O)(=O)Nc2ccccn2)cc1 [Sulfapyridine] | 5.39
119 | N#Cc1nn(-c2c(Cl)cc(C(F)(F)F)cc2Cl)c(N)c1S(=O)C(F)(F)F (stereo not drawn) [Fipronil] | 16.7
120 | Cc1ccc2n[nH]nc2c1 [5-Methyl-1H-benzotriazole] | 9.78
121 | NC(=O)N1c2ccccc2C=Cc2ccccc21 [Carbamazepine] | 12.6
122 | CC12CCC(=O)C=C1CCC1C2C(O)CC2(C)C(C(=O)CO)CCC12 (stereo not drawn) [Corticosterone] | 14
123 | Cc1cc(=O)n(-c2ccccc2)n1C [Phenazone (Antipyrine)] | 7.82
